The text below walks through data of patent publication US20060057639A1, “CaMKII/calcium channel phosphorylation-related compositions and methods” (priority 2004, published 2006).

The test system of experiment [1] is L-type Ca^2+ currents in cerebellar granule cells. In words: Patch-clamp recording of Ca2+-dependent facilitation of L-type currents in cultured cerebellar granule cells. Format: cell-based, mouse. The following applies: 2 μM peptide in patch pipette; Ca^2+ as charge carrier; train of five pulses; without peptide facilitation averaged ~50%. As to the method:
Dissociated cerebellar granule cells were prepared from 7-day old C57/BL6 mouse cerebella and grown in culture by a published protocol (Piedras-Renteria and Tsien, 1998; Randall and Tsien, 1995). The cerebellar granule cells were maintained in Minimal Essential Medium (Invitrogen) supplemented with 10% fetal bovine serum, glucose 5 mg/liter, transferrin 100 mg/liter, insulin 25 mg/liter, glutamine 300 mg/liter, and potassium chloride 20 mM. Cells were plated on Matrigel (Collaborative Biomedical Product) treated glass coverslips in 24-well chambers and maintained in a humidified, 37° C. incubator with […]/5% CO2. Cells were maintained for 6 to 9 days in culture prior to electrophysiological experiments. […]
Cerebellar granule cells, identified on the basis of morphology and size, comprised >90% of the cells in the primary culture. […] Voltage-gated Ca^2+ and Ba^2+ currents were recorded from cells depolarized to 0 mV with five 20 ms pulses (50 ms interpulse interval) from a −90 mV holding potential. […]
Background: In patch-clamp work, channel activity is measured electrically.

Experiment [2] addresses T1, interaction of autophosphorylated CaMKII with α1C amino acids 1581-1690 (Rattus norvegicus, UniProt P11275).
T1 construct: made in house; host or cells: GST fusion from bacteria
Nature of the experiment: GST pull down of autophosphorylated α-CaMKII with α1C 1581-1690 fusion protein, peptide interference. The format is binding. The following applies: 40 μM peptide; 20 nM autophosphorylated α-CaMKII. As to the method:
(B) Immunoblot with CBα2 after GST pull down of purified autophosphorylated α-CaMKII (20 nM), using α1C amino acids 1581-1690 fused to GST. Pull down assay performed in the presence of 40 μM of the indicated peptide or the peptide diluent DMSO. (C) Immunoblots with CBα2 or an anti-CaM antibody after a GST pull down assay, using α1C amino acids 1581-1690 (WT), a ^1644TVGKFY^1649→EEDAAA mutant (Mut6), or GST alone, of purified autophosphorylated CaMKII (left) or CaM (right). Top panels show a Ponceau stain of each fusion protein. […] Asterisk indicates p<0.001 for a one-way analysis of variance followed by a Dunnett's test to identify specific pair-wise differences between the means for Mut6 vs. wt and GST vs. wt, n=4-8. […] Top panels show a Ponceau stain of each fusion protein.
Peptides spanning α1C residues 1581-1690 have previously been described (Pitt et al., 2001). The NMDA-L peptide (Bayer et al., 2001), peptides AC-2 (Hanson et al., 1989), AC-3i (Braun and Schulman, 1995), and AC-3c (Braun and Schulman, 1995) have been described elsewhere.
The binding reactions were accomplished in Tris binding buffer (50 mM Tris, 150 mM NaCl, 0.1% T-20 at pH 7.4 ml plus 0.1% BSA) containing 20 nM purified CaMKII. The total protein from the HEK293 cell lysates added to each binding reaction ranged from 9-22 μg, determined by normalizing for the amount of CaMKII activity (Singla et al., 2001). Pre-autophosphorylayion of CaMKII (purified and lysate) was accomplished at 4° C. for 5 min in Tris binding buffer plus 1 mM CaCl2, 5 μM CaM, 1 mM ATP, and 5 mM MgCl2 to restrict the sites of autophosphorylation to primarily Thr286 (Ikeda et al., 1991; Lai et al., 1987; Lou and Schulman, 1989). Final concentration of these components in the binding reaction (1:40) was 0.025 mM CaCl2, 0.125 μM CaM, 0.025 mM ATP, and 0.125 mM MgCl2. The binding reaction was rocked for 1 h at 4° C. and the beads extensively washed in Tris binding buffer (2-3× for 5 mins each). […] CaMKII binding was quantified using densiotometric measurement of band intensity using KODAK 1D Image Analysis Software (Eastman Kodak, Company). […]

Another experiment has as its system CaMKII. Nature of the experiment: CaMKII dephosphorylation using PP1, autonomous activity measurement. The format is biochemical. The following applies: n=4. As to the method: Immunoblots with CBα2 or a phospho-specific CaMKII monoclonal antibody after GST pull down assays, using α1C amino acids 1509-1950 and 20 nM autophosphorylated α-CaMKII. (A) 5 mM EGTA was present in the binding reaction and/or in the wash; in (B), purified recombinant PP1 was added before (PP1-Pre) or after (PP1-Post) the binding reaction in the presence or absence of 5 mM EGTA, as indicated. (C) Time course of reversal of CaMKII autonomous activity following PP1 treatment in solution (n=4). (D) Activity measurements, using peptide AC-2 as a substrate, of CaMKII recovered in GST pull down assays, using α1C amino acids 1509-1950. Ca^2+/CaM-dependent and autonomous activity measurements of CaMKII recovered after treatment with recombinant PP1 for 30 min (PP1) or no treatment (−) in the binding assay (n=4). (E) Proposed mechanism of CaMKII binding to α1C to form a local and dedicated Ca^2+ spike integrator for CDF. […] Ca ^2+/CaM activation and Thr 286 autophosphorylation displace the CaMKII autoregulatory domain within the catalytic lobe to activate the subunit (yellow) and to expose an α1C tethering site. […] CaMKII may remain tethered to other cytoplasmic domains of α1C, as well. […]

Experiment [3] has as its target cloned L-type channels (subunit α1C77) (Homo sapiens, UniProt Q13936). Nature of the experiment: Check for use-dependence of diltiazem block of calcium currents supported by cloned L-type channels. The following applies: same solutions and voltage protocol as in granule cells; diltiazem 100 μM. Format: cell-based. As to the method: Dissociated cerebellar granule cells were prepared from 7-day old C57/BL6 mouse cerebella and grown in culture by a published protocol (Piedras-Renteria and Tsien, 1998; Randall and Tsien, 1995). The cerebellar granule cells were maintained in Minimal Essential Medium (Invitrogen) supplemented with 10% fetal bovine serum, glucose 5 mg/liter, transferrin 100 mg/liter, insulin 25 mg/liter, glutamine 300 mg/liter, and potassium chloride 20 mM. Cells were plated on Matrigel (Collaborative Biomedical Product) treated glass coverslips in 24-well chambers and maintained in a humidified, 37° C. incubator with […]/5% CO2. Cells were maintained for 6 to 9 days in culture prior to electrophysiological experiments. HEK293 cells stably transfected with the α2-δ and β1C subunits (HEKα2β1) were grown in Dulbecco's Modified Eagle's Medium containing 10% v/v calf serum, penicillin (100 units/ml), streptomycin (100 μg/ml), and kept under positive selection with Geneticin (400 μg/ml) while being maintained as described above. cDNAs encoding the α1C77 subunit (Zühlke and Reuter, 1998) and the green fluorescent protein were transiently transfected into HEKα2β1 cells by using the Lipofectamine2000 reagent (Invitrogen). Electrophysiological experiments were performed >24 hrs after transfection.

Sequence of CaMKII (P11275 whole entry, the tested form may be a part): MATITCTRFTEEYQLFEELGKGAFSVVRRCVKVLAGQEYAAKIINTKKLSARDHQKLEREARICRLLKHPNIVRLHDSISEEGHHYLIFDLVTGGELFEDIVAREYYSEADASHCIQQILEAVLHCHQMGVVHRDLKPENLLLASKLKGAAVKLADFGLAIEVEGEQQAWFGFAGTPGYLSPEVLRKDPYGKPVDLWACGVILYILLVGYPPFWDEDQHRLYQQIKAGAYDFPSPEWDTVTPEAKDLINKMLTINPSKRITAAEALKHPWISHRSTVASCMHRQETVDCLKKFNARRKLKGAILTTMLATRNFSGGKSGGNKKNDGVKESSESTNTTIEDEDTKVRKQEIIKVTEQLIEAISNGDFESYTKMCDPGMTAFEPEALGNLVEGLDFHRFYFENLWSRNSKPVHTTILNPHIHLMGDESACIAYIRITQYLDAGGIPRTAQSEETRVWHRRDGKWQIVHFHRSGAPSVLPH
Sequence of cloned L-type channels (subunit α1C77) (Q13936 1-2138 isoform Q13936-20): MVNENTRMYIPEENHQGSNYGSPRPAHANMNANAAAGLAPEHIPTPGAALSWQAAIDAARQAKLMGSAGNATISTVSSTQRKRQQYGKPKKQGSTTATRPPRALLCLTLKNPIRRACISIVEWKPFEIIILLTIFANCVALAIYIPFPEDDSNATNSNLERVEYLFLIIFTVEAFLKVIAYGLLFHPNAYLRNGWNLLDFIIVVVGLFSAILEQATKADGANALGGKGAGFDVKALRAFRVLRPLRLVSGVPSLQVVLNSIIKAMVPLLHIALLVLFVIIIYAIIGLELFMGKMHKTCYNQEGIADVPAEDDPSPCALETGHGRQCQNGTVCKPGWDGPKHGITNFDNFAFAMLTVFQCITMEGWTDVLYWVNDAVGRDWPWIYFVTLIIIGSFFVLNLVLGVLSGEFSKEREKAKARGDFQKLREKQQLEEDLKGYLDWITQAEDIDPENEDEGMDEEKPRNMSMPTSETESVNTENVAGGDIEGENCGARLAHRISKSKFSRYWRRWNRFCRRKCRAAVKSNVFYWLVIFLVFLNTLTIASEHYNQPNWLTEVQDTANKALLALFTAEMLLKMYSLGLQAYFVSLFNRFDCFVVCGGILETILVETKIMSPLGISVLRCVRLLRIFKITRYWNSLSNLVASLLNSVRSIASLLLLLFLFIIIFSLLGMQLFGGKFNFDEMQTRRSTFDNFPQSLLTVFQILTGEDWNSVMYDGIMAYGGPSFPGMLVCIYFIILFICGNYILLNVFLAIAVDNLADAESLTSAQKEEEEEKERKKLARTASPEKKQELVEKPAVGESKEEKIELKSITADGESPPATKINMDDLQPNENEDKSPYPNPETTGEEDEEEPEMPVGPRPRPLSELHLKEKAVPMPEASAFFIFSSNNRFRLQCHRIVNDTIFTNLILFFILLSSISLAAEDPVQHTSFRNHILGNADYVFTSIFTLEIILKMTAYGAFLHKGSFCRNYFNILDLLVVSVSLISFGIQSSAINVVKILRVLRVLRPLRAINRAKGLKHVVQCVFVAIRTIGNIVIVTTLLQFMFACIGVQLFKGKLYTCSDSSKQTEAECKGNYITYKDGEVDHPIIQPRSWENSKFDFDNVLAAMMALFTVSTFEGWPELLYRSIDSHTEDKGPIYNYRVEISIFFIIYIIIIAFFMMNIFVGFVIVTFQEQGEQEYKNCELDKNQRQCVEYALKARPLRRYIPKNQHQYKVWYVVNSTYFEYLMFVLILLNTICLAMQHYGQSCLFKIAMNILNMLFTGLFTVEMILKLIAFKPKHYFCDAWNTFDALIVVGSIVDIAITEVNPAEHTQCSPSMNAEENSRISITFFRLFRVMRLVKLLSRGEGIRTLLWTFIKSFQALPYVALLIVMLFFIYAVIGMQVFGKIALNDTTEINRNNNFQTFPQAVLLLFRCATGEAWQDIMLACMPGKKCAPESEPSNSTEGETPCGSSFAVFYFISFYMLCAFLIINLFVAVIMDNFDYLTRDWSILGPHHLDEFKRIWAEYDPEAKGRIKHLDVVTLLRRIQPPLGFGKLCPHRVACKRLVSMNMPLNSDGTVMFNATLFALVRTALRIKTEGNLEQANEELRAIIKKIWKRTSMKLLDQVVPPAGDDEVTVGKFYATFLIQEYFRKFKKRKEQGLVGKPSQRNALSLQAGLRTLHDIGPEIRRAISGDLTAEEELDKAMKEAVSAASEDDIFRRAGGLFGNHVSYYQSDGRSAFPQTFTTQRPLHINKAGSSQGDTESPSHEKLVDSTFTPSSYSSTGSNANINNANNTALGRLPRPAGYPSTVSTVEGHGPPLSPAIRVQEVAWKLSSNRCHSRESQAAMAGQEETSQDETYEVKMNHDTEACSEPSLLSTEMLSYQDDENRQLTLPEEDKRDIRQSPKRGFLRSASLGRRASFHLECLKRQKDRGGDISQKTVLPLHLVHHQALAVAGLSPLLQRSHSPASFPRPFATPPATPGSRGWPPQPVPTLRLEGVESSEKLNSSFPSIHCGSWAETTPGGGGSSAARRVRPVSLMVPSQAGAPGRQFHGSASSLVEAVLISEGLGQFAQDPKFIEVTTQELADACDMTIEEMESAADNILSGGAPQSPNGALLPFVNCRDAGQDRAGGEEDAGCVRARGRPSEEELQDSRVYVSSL
Sequence of cloned L-type channels (subunit α1C77) (P54289 25-956 partner limits assumed): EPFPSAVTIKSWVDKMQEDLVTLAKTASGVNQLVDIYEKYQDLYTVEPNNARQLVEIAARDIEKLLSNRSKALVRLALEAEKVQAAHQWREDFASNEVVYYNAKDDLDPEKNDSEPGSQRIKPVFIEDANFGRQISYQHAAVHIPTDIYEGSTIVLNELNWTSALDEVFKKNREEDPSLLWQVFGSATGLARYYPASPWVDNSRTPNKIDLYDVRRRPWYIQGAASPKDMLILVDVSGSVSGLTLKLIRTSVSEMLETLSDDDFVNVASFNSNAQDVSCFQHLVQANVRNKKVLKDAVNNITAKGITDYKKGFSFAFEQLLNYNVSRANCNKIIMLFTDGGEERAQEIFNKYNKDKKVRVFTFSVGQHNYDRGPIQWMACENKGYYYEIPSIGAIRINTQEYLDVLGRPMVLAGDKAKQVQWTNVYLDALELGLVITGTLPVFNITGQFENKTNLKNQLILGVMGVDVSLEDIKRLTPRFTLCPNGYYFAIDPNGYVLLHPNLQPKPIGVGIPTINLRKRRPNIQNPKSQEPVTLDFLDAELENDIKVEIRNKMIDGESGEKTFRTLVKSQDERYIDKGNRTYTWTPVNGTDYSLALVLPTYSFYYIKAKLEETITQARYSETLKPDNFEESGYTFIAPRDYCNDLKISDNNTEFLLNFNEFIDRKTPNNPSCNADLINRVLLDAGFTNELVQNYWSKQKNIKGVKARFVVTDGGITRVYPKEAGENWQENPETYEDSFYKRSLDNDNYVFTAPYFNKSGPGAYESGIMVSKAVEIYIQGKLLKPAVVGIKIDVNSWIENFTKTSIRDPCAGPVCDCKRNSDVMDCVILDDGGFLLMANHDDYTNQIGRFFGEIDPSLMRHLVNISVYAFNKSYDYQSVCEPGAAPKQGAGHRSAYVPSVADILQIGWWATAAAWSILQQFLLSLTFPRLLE
Sequence of cloned L-type channels (subunit α1C77) (P54289 957-1103 partner limits assumed): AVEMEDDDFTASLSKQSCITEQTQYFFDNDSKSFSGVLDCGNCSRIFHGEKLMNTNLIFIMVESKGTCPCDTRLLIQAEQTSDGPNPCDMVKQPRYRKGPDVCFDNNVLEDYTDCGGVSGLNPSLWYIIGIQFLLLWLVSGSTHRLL
Sequence of cloned L-type channels (subunit α1C77) (Q02641 whole entry partner): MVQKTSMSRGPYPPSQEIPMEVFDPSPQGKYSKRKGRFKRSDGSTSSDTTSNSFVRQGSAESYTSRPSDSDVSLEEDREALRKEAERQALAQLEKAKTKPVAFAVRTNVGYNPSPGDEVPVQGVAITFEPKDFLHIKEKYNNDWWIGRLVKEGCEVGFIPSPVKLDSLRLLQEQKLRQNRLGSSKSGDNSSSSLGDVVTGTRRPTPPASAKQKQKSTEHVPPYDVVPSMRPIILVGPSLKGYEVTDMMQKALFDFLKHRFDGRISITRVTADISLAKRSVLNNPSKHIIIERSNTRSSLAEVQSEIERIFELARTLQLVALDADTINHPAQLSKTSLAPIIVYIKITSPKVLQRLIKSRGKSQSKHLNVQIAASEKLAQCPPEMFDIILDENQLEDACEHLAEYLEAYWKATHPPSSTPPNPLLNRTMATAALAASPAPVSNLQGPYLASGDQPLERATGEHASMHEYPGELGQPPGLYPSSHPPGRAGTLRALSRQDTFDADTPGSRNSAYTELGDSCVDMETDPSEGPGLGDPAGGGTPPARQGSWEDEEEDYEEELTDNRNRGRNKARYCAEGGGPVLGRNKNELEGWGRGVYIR

For the compound “autocamtide-2-related inhibitory peptide (KKALRRQEAVDAL)”, in experiment [1], the “decrease in peak L-type current over the course of the depolarizing pulse train” value is reported as roughly 25%.
On to “1639-1660: ~22 aa peptide generated from α1C residues 1639-1660 (Pitt et al., 2001) (KIWKRTSMKLLDQVVPPAGDDE; UniProt Q13936 1639-1660, looked up, fragment)”, for which the “interaction of the kinase with the 1581-1690 fusion protein in presence of peptide” value (from here on “interaction of the kinase”) in experiment [2] is “dramatically reduced”.
As for “PP1: Hisx6-tagged protein phosphatase 1 catalytic subunit, purified recombinant”, the “remaining autonomous activity of α1C-bound CaMKII, % of that without PP1 treatment” value in the experiment with CaMKII (PP1 for 30 min, peptide AC-2 as substrate) turned out to be 1.2±0.6%. Moreover, in the experiment with CaMKII (soluble CaMKII in solution), the “time to complete dephosphorylation (loss of autonomous activity) of soluble kinase” value is reported as no more than 30 min.
With `COc1ccc([C@@H]2Sc3ccccc3N(CCN(C)C)C(=O)[C@@H]2OC(C)=O)cc1` [diltiazem], the “use-dependence of diltiazem block of calcium currents” value in experiment [3] was “none were found”.
As to “1589-1610: ~22 aa peptide of α1C residues 1589-1610, site important for tethering of apoCaM (KRLVSMNMPLNSDGTVMFNATL; UniProt Q13936 1589-1610, looked up, fragment)”, the “interaction of the kinase” value in experiment [2] is listed as “not inhibited”.
Turning to “1615-1636: ~22 aa peptide of α1C residues 1615-1636, site important for tethering of apoCaM (RTALRIKTEGNLEQANEELRAI; UniProt Q13936 1615-1636, looked up, fragment)”, the “interaction of the kinase” value in experiment [2] is reported as “not inhibited”.
